Where two headings read alike, the source gives them in different places.
[1] = 0.1N HCl, 1.0% DMSO, 24-hour incubation at ambient temperature, maximum theoretical 100 μM, first value of the cell
[2] = 1×PBS buffer (pH 7.4), 1.0% DMSO, 24-hour incubation at ambient temperature, maximum theoretical 100 μM, second value of the cell

| Compound | pH 2 solubility [1] | pH 7 solubility [2] | pH 7 solubility | pH 2 solubility (pH 2) |
| --- | --- | --- | --- | --- |
| CN(C(=O)N(c1nn(CC(F)(F)F)c2c(-c3ccc(C#CC(C)(C)S(C)(=O)=O)nc3[C@H](Cc3cc(F)cc(F)c3)NC(=O)Cn3nc(C(F)(F)F)c4c3C(F)(F)[C@@H]3C[C@H]43)ccc(Cl)c12)S(C)(=O)=O)[C@@H](CC(=O)O)C(=O)O [Compound 71, N-((4-chloro-7-(2-((S)-1-(2-((3bS,4aR)-5,5-difluoro-3-(trifluoromethyl)-3b,4,4a,5-tetrahydro-1H-cyclopropa[3,4]cyclopenta[1,2-c]pyrazol-1-yl)acetamido)-2-(3,5-difluorophenyl)ethyl)-6-(3-methyl-3-(methylsulfonyl)but-1-yn-1-yl)pyridin-3-yl)-1-(2,2,2-trifluoroethyl)-1H-indazol-3-yl)(methylsulfonyl)carbamoyl)-N-methyl-L-aspartic acid] | 1 μM | 15 μM | – | – |
| COC(=O)N(c1nn(CC(F)(F)F)c2c(-c3ccc(C#CC(C)(C)S(C)(=O)=O)nc3[C@H](Cc3cc(F)cc(F)c3)NC(=O)Cn3nc(C(F)(F)F)c4c3C(F)(F)[C@@H]3C[C@H]43)ccc(Cl)c12)S(C)(=O)=O [Compound 89, methyl (4-chloro-7-(2-((S)-1-(2-((3bS,4aR)-5,5-difluoro-3-(trifluoromethyl)-3b,4,4a,5-tetrahydro-1H-cyclopropa[3,4]cyclopenta[1,2-c]pyrazol-1-yl)acetamido)-2-(3,5-difluorophenyl)ethyl)-6-(3-methyl-3-(methylsulfonyl)but-1-yn-1-yl)pyridin-3-yl)-1-(2,2,2-trifluoroethyl)-1H-indazol-3-yl)(methylsulfonyl)carbamate] | 3/3 μM | 3/3 μM | – | – |
| CC(C)(C#Cc1ccc(-c2ccc(Cl)c3c(N(C(=O)CN4CCNCC4)S(C)(=O)=O)nn(CC(F)(F)F)c23)c([C@H](Cc2cc(F)cc(F)c2)NC(=O)Cn2nc(C(F)(F)F)c3c2C(F)(F)[C@@H]2C[C@H]32)n1)S(C)(=O)=O [Compound 7, (N-(4-chloro-7-(2-((S)-1-(2-((3bS,4aR)-5,5-difluoro-3-(trifluoromethyl)-3b,4,4a,5-tetrahydro-1H-cyclopropa[3,4]cyclopenta[1,2-c]pyrazol-1-yl)acetamido)-2-(3,5-difluorophenyl)ethyl)-6-(3-methyl-3-(methylsulfonyl)but-1-yn-1-yl)pyridin-3-yl)-1-(2,2,2-trifluoroethyl)-1H-indazol-3-yl)-N-(methylsulfonyl)-2-(piperazin-1-yl)acetamide)] | 65 μM | 7 μM | – | – |
| CC(C)(C#Cc1ccc(-c2ccc(Cl)c3c(N(C(=O)OC(CCC(=O)O)CCC(=O)O)S(C)(=O)=O)nn(CC(F)(F)F)c23)c([C@H](Cc2cc(F)cc(F)c2)NC(=O)Cn2nc(C(F)(F)F)c3c2C(F)(F)[C@@H]2C[C@H]32)n1)S(C)(=O)=O [Compound 124, 4-(((4-chloro-7-(2-((S)-1-(2-((3bS,4aR)-5,5-difluoro-3-(trifluoromethyl)-3b,4,4a,5-tetrahydro-1H-cyclopropa[3,4]cyclopenta[1,2-c]pyrazol-1-yl)acetamido)-2-(3,5-difluorophenyl)ethyl)-6-(3-methyl-3-(methylsulfonyl)but-1-yn-1-yl)pyridin-3-yl)-1-(2,2,2-trifluoroethyl)-1H-indazol-3-yl)(methylsulfonyl)carbamoyl)oxy)heptanedioic acid] | – | – | 2/83 μM | 2/83 μM |
| CC(C)(C#Cc1ccc(-c2ccc(Cl)c3c(N(C(=O)NC(CO)CO)S(C)(=O)=O)nn(CC(F)(F)F)c23)c([C@H](Cc2cc(F)cc(F)c2)NC(=O)Cn2nc(C(F)(F)F)c3c2C(F)(F)[C@@H]2C[C@H]32)n1)S(C)(=O)=O [Compound 36, N—((S)-1-(3-(4-chloro-3-(N-((1,3-dihydroxypropan-2-yl)carbamoyl)methylsulfonamido)-1-(2,2,2-trifluoroethyl)-1H-indazol-7-yl)-6-(3-methyl-3-(methylsulfonyl)but-1-yn-1-yl)pyridin-2-yl)-2-(3,5-difluorophenyl)ethyl)-2-((3bS,4aR)-5,5-difluoro-3-(trifluoromethyl)-3b,4,4a,5-tetrahydro-1H-cyclopropa[3,4]cyclopenta[1,2-c]pyrazol-1-yl)acetamide] | 1 μM | 5 μM | – | – |
| CC(C)(C#Cc1ccc(-c2ccc(Cl)c3c(N(C(=O)OCCC(=O)O)S(C)(=O)=O)nn(CC(F)(F)F)c23)c([C@H](Cc2cc(F)cc(F)c2)NC(=O)Cn2nc(C(F)(F)F)c3c2C(F)(F)[C@@H]2C[C@H]32)n1)S(C)(=O)=O [Compound 121, 3-(((4-chloro-7-(2-((S)-1-(2-((3bS,4aR)-5,5-difluoro-3-(trifluoromethyl)-3b,4,4a,5-tetrahydro-1H-cyclopropa[3,4]cyclopenta[1,2-c]pyrazol-1-yl)acetamido)-2-(3,5-difluorophenyl)ethyl)-6-(3-methyl-3-(methylsulfonyl)but-1-yn-1-yl)pyridin-3-yl)-1-(2,2,2-trifluoroethyl)-1H-indazol-3-yl)(methylsulfonyl)carbamoyl)oxy)propanoic acid] | 1 μM | 21 μM | – | – |
| C[C@H](N)C(=O)OCN(c1nn(CC(F)(F)F)c2c(-c3ccc(C#CC(C)(C)S(C)(=O)=O)nc3[C@H](Cc3cc(F)cc(F)c3)NC(=O)Cn3nc(C(F)(F)F)c4c3C(F)(F)[C@@H]3C[C@H]43)ccc(Cl)c12)S(C)(=O)=O [Compound 27, (N-(4-chloro-7-(2-((S)-1-(2-((3bS,4aR)-5,5-difluoro-3-(trifluoromethyl)-3b,4,4a,5-tetrahydro-1H-cyclopropa[3,4]cyclopenta[1,2-c]pyrazol-1-yl)acetamido)-2-(3,5-difluorophenyl)ethyl)-6-(3-methyl-3-(methylsulfonyl)but-1-yn-1-yl)pyridin-3-yl)-1-(2,2,2-trifluoroethyl)-1H-indazol-3-yl)methylsulfonamido)methyl L-alaninate] | 20 μM | 2 μM | – | – |
| C[C@H](O)CNC(=O)N(c1nn(CC(F)(F)F)c2c(-c3ccc(C#CC(C)(C)S(C)(=O)=O)nc3[C@H](Cc3cc(F)cc(F)c3)NC(=O)Cn3nc(C(F)(F)F)c4c3C(F)(F)[C@@H]3C[C@H]43)ccc(Cl)c12)S(C)(=O)=O [Compound 34, N—((S)-1-(3-(4-chloro-3-(N—(((S)-2-hydroxypropyl)carbamoyl)methylsulfonamido)-1-(2,2,2-trifluoroethyl)-1H-indazol-7-yl)-6-(3-methyl-3-(methylsulfonyl)but-1-yn-1-yl)pyridin-2-yl)-2-(3,5-difluorophenyl)ethyl)-2-((3bS,4aR)-5,5-difluoro-3-(trifluoromethyl)-3b,4,4a,5-tetrahydro-1H-cyclopropa[3,4]cyclopenta[1,2-c]pyrazol-1-yl)acetamide] | 1 μM | 4 μM | – | – |

The next lines start with the values.

| pH 2 solubility [1] | pH 7 solubility [2] | pH 7 solubility | pH 2 solubility (pH 2) | Compound |
| --- | --- | --- | --- | --- |
| 33 μM | 7 μM | – | – | CC(C)(C#Cc1ccc(-c2ccc(Cl)c3c(N(C(=O)CN4CCOCC4)S(C)(=O)=O)nn(CC(F)(F)F)c23)c([C@H](Cc2cc(F)cc(F)c2)NC(=O)Cn2nc(C(F)(F)F)c3c2C(F)(F)[C@@H]2C[C@H]32)n1)S(C)(=O)=O [Compound 4, (N-(4-chloro-7-(2-((S)-1-(2-((3bS,4aR)-5,5-difluoro-3-(trifluoromethyl)-3b,4,4a,5-tetrahydro-1H-cyclopropa[3,4]cyclopenta[1,2-c]pyrazol-1-yl)acetamido)-2-(3,5-difluorophenyl)ethyl)-6-(3-methyl-3-(methylsulfonyl)but-1-yn-1-yl)pyridin-3-yl)-1-(2,2,2-trifluoroethyl)-1H-indazol-3-yl)-N-(methylsulfonyl)-2-morpholinoacetamide)] |
| 1 μM | 13 μM | – | – | CC(C)(C#Cc1ccc(-c2ccc(Cl)c3c(N(C(=O)NCCCCP(=O)(O)O)S(C)(=O)=O)nn(CC(F)(F)F)c23)c([C@H](Cc2cc(F)cc(F)c2)NC(=O)Cn2nc(C(F)(F)F)c3c2C(F)(F)[C@@H]2C[C@H]32)n1)S(C)(=O)=O [Compound 55, (4-(3-(4-chloro-7-(2-((S)-1-(2-((3bS,4aR)-5,5-difluoro-3-(trifluoromethyl)-3b,4,4a,5-tetrahydro-1H-cyclopropa[3,4]cyclopenta[1,2-c]pyrazol-1-yl)acetamido)-2-(3,5-difluorophenyl)ethyl)-6-(3-methyl-3-(methylsulfonyl)but-1-yn-1-yl)pyridin-3-yl)-1-(2,2,2-trifluoroethyl)-1H-indazol-3-yl)-3-(methylsulfonyl)ureido)butyl)phosphonic acid] |
| 9 μM | 10 μM | – | – | CC(C)(C#Cc1ccc(-c2ccc(Cl)c3c(N(C(=O)OCC(=O)O)S(C)(=O)=O)nn(CC(F)(F)F)c23)c([C@H](Cc2cc(F)cc(F)c2)NC(=O)Cn2nc(C(F)(F)F)c3c2C(F)(F)[C@@H]2C[C@H]32)n1)S(C)(=O)=O [Compound 117, 2-(((4-chloro-7-(2-((S)-1-(2-((3bS,4aR)-5,5-difluoro-3-(trifluoromethyl)-3b,4,4a,5-tetrahydro-1H-cyclopropa[3,4]cyclopenta[1,2-c]pyrazol-1-yl)acetamido)-2-(3,5-difluorophenyl)ethyl)-6-(3-methyl-3-(methylsulfonyl)but-1-yn-1-yl)pyridin-3-yl)-1-(2,2,2-trifluoroethyl)-1H-indazol-3-yl)(methylsulfonyl)carbamoyl)oxy)acetic acid] |
| 2 μM | 100 μM | – | – | CC(C)(C#Cc1ccc(-c2ccc(Cl)c3c(N(C(=O)OCCOP(=O)(O)O)S(C)(=O)=O)nn(CC(F)(F)F)c23)c([C@H](Cc2cc(F)cc(F)c2)NC(=O)Cn2nc(C(F)(F)F)c3c2C(F)(F)[C@@H]2C[C@H]32)n1)S(C)(=O)=O [Compound 100, 2-(phosphonooxy)ethyl (4-chloro-7-(2-((S)-1-(2-((3bS,4aR)-5,5-difluoro-3-(trifluoromethyl)-3b,4,4a,5-tetrahydro-1H-cyclopropa[3,4]cyclopenta[1,2-c]pyrazol-1-yl)acetamido)-2-(3,5-difluorophenyl)ethyl)-6-(3-methyl-3-(methylsulfonyl)but-1-yn-1-yl)pyridin-3-yl)-1-(2,2,2-trifluoroethyl)-1H-indazol-3-yl)(methylsulfonyl)carbamate] |

From patent US12404262B2 (priority 2021, dated 2025)
